Consider seven molecules from US20060069132A1, “Azolecarboxamide herbicides” (priority 2004, published 2006).

The test system of one assay is giant foxtail. As to the kind of experiment: Test B pre-/postemergence herbicide test. It is filed as in vivo, Setaria faberi. In a few lines:
(§1)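 Plants compared with untreated controls 13–15 days post-treatment and given a visual 0–100 injury score. Applications: preemergence to seeds; postemergence at 1- to 4-leaf (2–18 cm); paddy species flooded, 2-leaf stage. Vehicle non-phytotoxic, surfactant included.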

A further assay concerns pigweed. The experiment in a line: Test B pre-/postemergence herbicide test. It counts as in vivo, Amaranthus retroflexus. In a few lines: as §1
The test system of assay [1] is smallflower umbrella sedge. As to the kind of experiment: Test C flooded paddy test. It is filed as in vivo, Cyperus difformis. The conditions noted are these: for Plant response rating, Sedge, Umbrella: visual rating after 12 to 14 days.
Where [2] appears, read: 125 g ai/ha, 0 = no effect, 100 = complete control, preemergence.
[3] abbreviates: 500 g ai/ha, visual rating, 0 = no effect, 100 = complete control, preemergence.
[4] abbreviates: postemergence, 125 g ai/ha, visual rating, scale 0 (no effect) to 100 (complete control).
[5] abbreviates: postemergence, 500 g ai/ha, scale 0 to 100, 0 is no effect, 100 is complete control.
Setting [6] is: 125 g ai/ha, scale 0 to 100 (0 no effect, 100 complete control).
Where [7] appears, read: 250 g ai/ha, scale of 0 to 100, 0 is no effect, 100 is complete control.
The mark [8] stands for this setting: 500 g ai/ha, scale 0 to 100 (0 no effect, 100 complete control).
Setting [9] is: 125 g ai/ha, 0 is no effect, 100 is complete control, preemergence.
[10] abbreviates: 125 g ai/ha, visual rating, scale 0 (no effect) to 100 (complete control), postemergence.
The mark [11] stands for this setting: Postemergence, 500 g ai/ha, visual rating after 13 to 15 days, scale 0 (no effect) to 100 (complete control).
Setting [12] is: Preemergence, 500 g ai/ha, scale 0 to 100.
[13] abbreviates: preemergence, 125 g ai/ha, 0 to 100 scale, 0 is no effect, 100 is complete control.
Setting [14] is: 62 g ai/ha, scale 0 to 100 (0 no effect, 100 complete control).
The mark [15] stands for this setting: 500 g ai/ha, visual rating 0-100, 0 no effect, 100 complete control, preemergence.
The mark [16] stands for this setting: postemergence, 500 g ai/ha, visual rating, scale 0 (no effect) to 100 (complete control).
Where [17] appears, read: Postemergence, 500 g ai/ha, scale 0 (no effect) to 100 (complete control).
[18] abbreviates: postemergence, 125 g ai/ha, scale 0 to 100.

Take `CCn1nc(C(C)(C)C)cc1C(=O)Nc1nc(C(=O)N2CC=CC2)ccc1F` [Compound 281]: the “Foxtail, Giant plant response rating (0 to 100 scale)” value with giant foxtail (setting [2]) was found to be 10. The “Plant response rating, Foxtail, Giant” value in the assay with giant foxtail (setting [3]) turned out to be 60. In addition, the “Foxtail, Giant plant response rating” value in the assay with giant foxtail (setting [4]) and in the assay with giant foxtail (setting [5]) was 10 in each case. The “Pigweed plant response rating (0 to 100 scale)” value with pigweed (setting [2]) is given as 100. Further, the “Plant response rating, Pigweed” value in the assay with pigweed (setting [3]) came to 100. The “Pigweed plant response rating” value was 20 in the assay on pigweed (setting [4]) and 30 in the assay with pigweed (setting [5]). Also, the “Sedge, Umbrella plant response rating” value in assay [1] (62 g ai/ha, scale 0 to 100) is recorded as 15; in assay [1] (setting [6]), 20; in assay [1] (setting [7]), 40. Further, the “Plant response rating, Sedge, Umbrella” value in assay [1] (setting [8]) stood at 90.

`CCNC(=O)c1ccc(F)c(NC(=O)c2cc(C(C)(C)C)nn2CC)n1` [Compound 278]: the “Foxtail, Giant plant response rating (0 to 100 scale)” value in the assay with giant foxtail (setting [2]) worked out at 20. The “Plant response rating, Foxtail, Giant” value with giant foxtail (setting [3]) was 80. In addition, the “Foxtail, Giant plant response rating” value in the assay on giant foxtail (setting [4]) came to 0; in the assay on giant foxtail (setting [5]), 10. The “Pigweed plant response rating (0 to 100 scale)” value in the assay with pigweed (setting [2]) is given as 100. Also, in the assay with pigweed (setting [3]), the “Plant response rating, Pigweed” value amounted to 100. Further, the “Pigweed plant response rating” value with pigweed (setting [4]) is 10; in the assay with pigweed (setting [5]) it was 40. Also, the “Sedge, Umbrella plant response rating” value in assay [1] (62 g ai/ha, scale 0 to 100) was found to be 0; in assay [1] (setting [6]), 25; in assay [1] (setting [7]), 65. The “Plant response rating, Sedge, Umbrella” value in assay [1] (setting [8]) is 75.

Turning to `C#CCNC(=O)c1cc(NC(=O)c2cc(C(C)(C)C)nn2CC)ccn1` [Compound 283], the “Foxtail, Giant plant response rating (0 to 100 scale)” value in the assay with giant foxtail (setting [2]) was found to be 0. Also, the “Plant response rating, Foxtail, Giant” value in the assay with giant foxtail (setting [3]) is listed as 10. In addition, the “Foxtail, Giant plant response rating” value with giant foxtail (setting [4]) and in the assay on giant foxtail (setting [5]) was 0 each time. For the same molecule, the “Pigweed plant response rating (0 to 100 scale)” value in the assay on pigweed (setting [2]) worked out at 0. Also, the “Plant response rating, Pigweed” value with pigweed (setting [3]) is recorded as 100. Moreover, the “Pigweed plant response rating” value in the assay on pigweed (setting [4]) turned out to be 0; with pigweed (setting [5]), 20. For the same molecule, the “Sedge, Umbrella plant response rating” value was determined as 0 in assay [1] (62 g ai/ha, scale 0 to 100); 0 in assay [1] (setting [6]); 0 in assay [1] (setting [7]). The “Plant response rating, Sedge, Umbrella” value in assay [1] (setting [8]) was 0.

`C#CCNC(=O)c1cccc(NC(=O)c2sc(C(C)(C)C)nc2CC)c1` [Compound 319]: the “Plant response rating (0 to 100 scale), Foxtail, Giant” value in the assay with giant foxtail (setting [9]) was 20. Also, the “Foxtail, Giant plant response rating” value in the assay on giant foxtail (setting [10]) is reported as 20; in the assay with giant foxtail (setting [5]), 30. Besides, the “Plant response rating, Foxtail, Giant” value with giant foxtail (setting [3]) is given as 50. The “Plant response rating (0 to 100 scale), Pigweed” value in the assay with pigweed (setting [9]) turned out to be 60. Besides, the “Pigweed plant response rating” value turned out to be 30 with pigweed (setting [10]) and 40 with pigweed (setting [5]). Further, in the assay with pigweed (setting [3]), the “Plant response rating, Pigweed” value turned out to be 100. The “Sedge, Umbrella plant response rating” value in assay [1] (62 g ai/ha, scale 0 to 100) is 20; in assay [1] (setting [6]), 35; in assay [1] (setting [7]), 70. For the same molecule, the “Plant response rating, Sedge, Umbrella” value in assay [1] (setting [8]) worked out at 80.

In the case of `CCn1nc(C(C)(C)C)cc1C(=O)Nc1cccc(C(=O)NCCF)c1` [Compound 45], the “Foxtail, Giant plant response rating” value in the assay on giant foxtail (Postemergence, 125 g ai/ha, scale 0 (no effect) to 100 (complete control)) is on record as 20; in the assay with giant foxtail (setting [12]) it was 100. Also, the “Plant response rating, Foxtail, Giant” value with giant foxtail (setting [11]) is 30; with giant foxtail (setting [13]), 10. Further, the “Plant response rating, Pigweed” value in the assay on pigweed (setting [11]) and with pigweed (setting [13]) was 100 throughout. Besides, the “Pigweed plant response rating” value in the assay on pigweed (setting [12]) turned out to be 100. Moreover, the “Sedge, Umbrella plant response rating” value stood at 55 in assay [1] (setting [14]) and 60 in assay [1] (125 g ai/ha, scale of 0 to 100, 0 is no effect, 100 is complete control). The “Plant response rating, Sedge, Umbrella” value in assay [1] (250 g ai/ha, scale 0 to 100 (0 no effect, 100 complete control)) was 80; in assay [1] (setting [8]), 80.

Consider `CCn1nc(C(C)(C)C)cc1C(=O)Nc1cccc(OCCCF)c1` [Compound 138], for which the “Plant response rating, Foxtail, Giant” value in the assay on giant foxtail (setting [15]) is 70; with giant foxtail (setting [13]), 30. Also, the figures for the “Foxtail, Giant plant response rating” value in the assay on giant foxtail (setting [4]) and with giant foxtail (setting [16]) were 20 and 30, respectively. Further, the “Plant response rating, Pigweed” value in the assay with pigweed (setting [15]) was found to be 100; in the assay on pigweed (setting [13]) it was 60. The results for the “Pigweed plant response rating” value in the assay on pigweed (setting [4]) and in the assay on pigweed (setting [16]) were 60 and 90, respectively. Also, the “Sedge, Umbrella plant response rating” value in assay [1] (setting [14]) is 0; in assay [1] (setting [6]) it was 40; in assay [1] (setting [7]), 75. For the same molecule, the “Plant response rating, Sedge, Umbrella” value in assay [1] (setting [8]) is recorded as 95.

With `CCN(C(C)=O)C(=O)c1ccc(F)c(NC(=O)c2cc(C(C)(C)C)nn2CC)c1` [Compound 413], in the assay with giant foxtail (setting [9]), the “Plant response rating (0 to 100 scale), Foxtail, Giant” value is given as 10. Also, the “Foxtail, Giant plant response rating” value with giant foxtail (setting [17]) and with giant foxtail (setting [18]) was 20 throughout. The “Plant response rating (0 to 100 scale), Pigweed” value with pigweed (setting [9]) is recorded as 20. For the same molecule, the “Pigweed plant response rating” value in the assay on pigweed (setting [17]) is recorded as 70; with pigweed (setting [18]), 50. The “Sedge, Umbrella plant response rating” value in assay [1] (62 g ai/ha, scale 0 to 100) is 10; in assay [1] (setting [6]), 50; in assay [1] (setting [7]), 75. For the same molecule, the “Plant response rating, Sedge, Umbrella” value in assay [1] (setting [8]) worked out at 75.
